The values that follow come from US20210330611A1, “THERAPY FOR NEUROLOGICAL DISEASES/DISORDERS” (priority 2020, published 2021).

The structures appear in SMILES notation. Counter-ions that a name gives are not always drawn. Like-named read-outs stand apart in the source and are kept apart here.

The subject of data set [1] is fibrin-induced microglia activation. The experiment in a line: Image-based assay of fibrin-induced microglia activation (HTS and dose response). Type of data set: cell-based, rat. The following applies: for IC50 / inhibition at 10 µM: Rattus norvegicus, Microglia; for inhibition at 10 µM: primary microglia HTS, fibrin stimulation, increased cell size (>800 μm^2) as marker of activation, read-out: Fibrin % inhibition.

The test system of data set [2] is LPS-induced microglia activation. The data set can be described thus: Image-based assay of LPS-induced microglia activation (HTS and dose response). Type of data set: cell-based, rat. As to conditions: Rattus norvegicus, Microglia; for inhibition at 10 µM: primary microglia HTS, LPS stimulation, increased cell size (>800 μm^2) as marker of activation, read-out: LPS % inhibition.

Data set [3] has as its system fibrin- and LPS-induced microglia activation. The experiment in a line: cells. The data set is classed as cell-based, rat. The following applies: for inhibition at 10 µM: Rattus norvegicus.
Data set [4] is described as follows: in vitro. As to conditions: rat, Cell Toxicity IC50 (uM) [cFib assay].
A short description of data set [5]: in vitro. The following applies: rat.
Data set [6] has as its system primary rat microglia. The data set can be described thus: Cell toxicity (dead cells, size <150 μm2) in LPS assay. The following applies: for LPS % cell toxicity: primary microglia HTS, LPS stimulation, decreased size (<150 μm^2) as marker of toxicity; for IC50: read-out: Cell Toxicity IC50 (uM) [LPS assay], LPS assay.
Data set [7] concerns primary rat microglia. The data set can be described thus: Cell toxicity (dead cells, size <150 μm2) in coated fibrin (cFib) assay.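 As to Fibrin % cell toxicity: share of dead cells sized under 150 µm2 at 10 µM in fibrin-stimulated microglia HTS.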 The following applies: primary microglia HTS, fibrin stimulation; decreased size (<150 μm^2) as marker of toxicity.
The mark [8] stands for this setting: 48 h, Table 1, dose response 0.001-20 μM, triplicates, primary rat microglia, 48 h, read-out: Fibrin IC50.
Where [9] appears, read: Table 3, read-out: Fibrin IC50 (uM) (Suppl. Table 7).
The mark [10] stands for this setting: dose response, fibrin-induced microglia activation, read-out: Fibrin IC50.
The mark [11] stands for this setting: fibrin-induced microglia activation, dose response, read-out: Fibrin IC50 (uM) (Suppl. Table 7).
[12] abbreviates: 48 h, Table 1, dose response 0.001-20 μM, triplicates, primary rat microglia, 48 h, read-out: LPS IC50.
The mark [13] stands for this setting: LPS-induced microglia activation, dose response, read-out: LPS IC50 (uM) (Suppl. Table 7).
Where [14] appears, read: Table 3, read-out: LPS IC50 (uM) (Suppl. Table 7).
The mark [15] stands for this setting: dose response, LPS-induced microglia activation, read-out: LPS IC50.
[16] abbreviates: HTS of 1907 compounds, quadrant by fibrin and LPS inhibition.
The mark [17] stands for this setting: Microglia, Table 3, read-out: Cherry-picked Hit (Suppl. Table 7).
Setting [18] is: Microglia, HTS hit classification, read-out: Hit.
Where [19] appears, read: quadrant by fibrin and LPS inhibition in HTS of 1907 compounds.
The mark [20] stands for this setting: hit classification in microglia HTS, read-out: Cherry-picked Hit (Suppl. Table 7).

Take `CC(NCCc1ccc(O)cc1)C(O)c1ccc(O)cc1` (stereo not shown) [Ritodrine hydrochloride, reference compound]: the “Fibrin Selectivity” value in data set [1] was determined as 33; in data set [1] (fibrin vs LPS, Table 6), 33. The “Fibrin Selectivity (LOG10)” value in data set [1] is listed as 1.51; in data set [1] (fibrin vs LPS, LOG10, Table 6), 1.51. Also, the IC50 in data set [1] (setting [8]) is 0.6 µM; in data set [1] (setting [9]) it was 0.6 µM; in data set [1] (Table 6, read-out: Fibrin IC50 (uM) (Suppl. Table 7)) it was 0.6 µM; in data set [1] (setting [10]), 0.6 µM; in data set [1] (setting [11]), 0.6 µM; in data set [2] (setting [12]), over 20 µM. In addition, the IC50 in data set [2] (setting [13]) is over 20 µM; in data set [2] (setting [14]), over 20 µM; in data set [2] (Table 6, read-out: LPS IC50 (uM) (Suppl. Table 7)), over 20 µM; in data set [2] (setting [15]) it was over 20 µM; in data set [4] (Table 3) it was over 20 µM; in data set [4] (cFib assay), over 20 µM. Also, the IC50 is over 20 µM in data set [4] (cFib assay, Table 6); over 20 µM in data set [5]; over 20 µM in data set [6]; over 20 µM in data set [6] (Table 6). Also, the inhibition at 10 µM in data set [1] is 51%; in data set [2] (48 h) it was 36%; in data set [3] (setting [17]), over 50%; in data set [3] (setting [18]), over 50%. Further, the “Quadrant (FIG. 5b)” value is “Q3” in data set [3] (setting [16]); “Q3” in data set [3] (Table 1, screen at 10 μM); “Q3” in data set [3] (Table 3, screen at 10 μM); “Q3” in data set [3] (microglia HTS, Table 6); “Q3” in data set [3] (setting [19]). Also, the “LPS % cell toxicity” value in data set [6] stood at 1%. The “Fibrin % cell toxicity” value in data set [7] is recorded as 1%.
In the case of `CC(C)c1nc(N(C)S(C)(=O)=O)nc(-c2ccc(F)cc2)c1/C=C/[C@@H](O)C[C@@H](O)CC(=O)O` [Rosuvastatin, reference compound], the “Fibrin Selectivity” value in data set [1] amounted to 12. For the same compound, the “Fibrin Selectivity (LOG10)” value in data set [1] amounted to 1.09. Besides, the IC50 in data set [1] (setting [8]) stood at 0.3 µM; in data set [1] (setting [9]), 0.3 µM; in data set [1] (setting [10]), 0.3 µM; in data set [1] (setting [11]) it was 0.3 µM; in data set [2] (setting [12]) it was 3 µM; in data set [2] (setting [13]), 3 µM. Moreover, the IC50 in data set [2] (setting [14]) is 3 µM; in data set [2] (setting [15]), 3 µM; in data set [4] (Table 3) it was 20 µM; in data set [4] (cFib assay), 20 µM; in data set [5] it was over 20 µM; in data set [6], over 20 µM. For the same compound, the inhibition at 10 µM was 93% in data set [1], 95% in data set [2] (48 h), over 50% in data set [3] (setting [17]) and over 50% in data set [3] (setting [18]). The “Quadrant (FIG. 5b)” value in data set [3] (setting [16]) is “Q2”; in data set [3] (Table 1, screen at 10 μM), “Q2”; in data set [3] (Table 3, screen at 10 μM), “Q2”; in data set [3] (setting [19]), “Q2”. Further, the “LPS % cell toxicity” value in data set [6] amounted to 4%. Besides, the “Fibrin % cell toxicity” value in data set [7] worked out at 2%.
Turning to `OCc1ccccc1O[C@@H]1O[C@H](CO)[C@@H](O)[C@H](O)[C@H]1O` [Salicin, reference compound], the IC50 in data set [1] (setting [8]), in data set [1] (setting [10]), in data set [1] (setting [11]), in data set [2] (setting [12]), in data set [2] (setting [13]) and in data set [2] (setting [15]) was over 20 µM throughout. Further, the IC50 in data set [4] (cFib assay) and in data set [5] was over 20 µM each time. Also, the inhibition at 10 µM was 76% in data set [1], 61% in data set [2] (48 h), over 50% in data set [3] (setting [18]) and over 50% in data set [3] (setting [20]). Also, the “Quadrant (FIG. 5b)” value is “Q2” in data set [3] (setting [16]); “Q2” in data set [3] (Table 1, screen at 10 μM); “Q2” in data set [3] (setting [19]). Also, in data set [6], the “LPS % cell toxicity” value is listed as 1%. For the same compound, the “Fibrin % cell toxicity” value in data set [7] is recorded as 1%.
In the case of `O=C1C=C2C=C[C@@H]3C[C@@]2(O1)[C@H]1CCCCN31` [Securinine, reference compound], the “Fibrin Selectivity” value in data set [1] is recorded as 3. Further, the “Fibrin Selectivity (LOG10)” value in data set [1] was determined as 0.40. The IC50 amounted to 2 µM in data set [1] (setting [8]); 2 µM in data set [1] (setting [9]); 2 µM in data set [1] (setting [10]); 2 µM in data set [1] (setting [11]); 6 µM in data set [2] (setting [12]); 6 µM in data set [2] (setting [13]). The IC50 was 6 µM in data set [2] (setting [14]); 6 µM in data set [2] (setting [15]); over 20 µM in data set [4] (Table 3); over 20 µM in data set [4] (cFib assay); 12 µM in data set [5]. Moreover, the inhibition at 10 µM in data set [1] was 104%; in data set [2] (48 h) it was 106%; in data set [3] (setting [17]), over 50%; in data set [3] (setting [18]), over 50%. Also, the “Quadrant (FIG. 5b)” value is “Q2” in data set [3] (setting [16]); “Q2” in data set [3] (Table 1, screen at 10 μM); “Q2” in data set [3] (Table 3, screen at 10 μM); “Q2” in data set [3] (setting [19]). Moreover, the “LPS % cell toxicity” value in data set [6] is 1%. The “Fibrin % cell toxicity” value in data set [7] was 2%.
Consider `Nc1ccc(S(=O)(=O)Nc2cnc3ccccc3n2)cc1` [Sulfaquinoxaline sodium, reference compound], for which the IC50 in data set [1] (setting [8]), in data set [1] (setting [10]), in data set [1] (setting [11]), in data set [2] (setting [12]), in data set [2] (setting [13]) and in data set [2] (setting [15]) was over 20 µM in each case. Moreover, the IC50 in data set [4] (cFib assay) and in data set [5] was over 20 µM each time. For the same compound, the inhibition at 10 µM was 106% in data set [1], 104% in data set [2] (48 h), over 50% in data set [3] (setting [18]) and over 50% in data set [3] (setting [20]). Further, the “Quadrant (FIG. 5b)” value is “Q2” in data set [3] (setting [16]); “Q2” in data set [3] (Table 1, screen at 10 μM); “Q2” in data set [3] (setting [19]). The “LPS % cell toxicity” value in data set [6] worked out at 3%. For the same compound, in data set [7], the “Fibrin % cell toxicity” value came out at 3%.
As for `[H]/N=C(/NCCCCC)N/N=C/c1c[nH]c2ccc(OC)cc12` [Tegaserod maleate, reference compound], the “Fibrin Selectivity” value in data set [1] is listed as 20. Besides, the “Fibrin Selectivity (LOG10)” value in data set [1] was determined as 1.29. In addition, the IC50 in data set [1] (setting [8]) was determined as 1 µM; in data set [1] (setting [9]), 1 µM; in data set [1] (setting [10]), 1 µM; in data set [1] (setting [11]) it was 1 µM; in data set [2] (setting [12]) it was 19 µM; in data set [2] (setting [13]), 19 µM. Also, the IC50 in data set [2] (setting [14]) is 19 µM; in data set [2] (setting [15]), 19 µM; in data set [4] (Table 3) it was over 20 µM; in data set [4] (cFib assay), over 20 µM; in data set [5] it was over 20 µM; in data set [6], over 20 µM. For the same compound, the inhibition at 10 µM in data set [1] was 100%; in data set [2] (48 h), 86%; in data set [3] (setting [17]), over 50%; in data set [3] (setting [18]) it was over 50%. The “Quadrant (FIG. 5b)” value in data set [3] (setting [16]) was “Q2”; in data set [3] (Table 1, screen at 10 μM), “Q2”; in data set [3] (Table 3, screen at 10 μM), “Q2”; in data set [3] (setting [19]), “Q2”. In data set [6], the “LPS % cell toxicity” value was determined as 2%. Moreover, the “Fibrin % cell toxicity” value in data set [7] was determined as 2%.
On to `COc1ccc(-n2nc(CCC(=O)N(C)O)cc2-c2ccc(Cl)cc2)cc1` [Tepoxalin, reference compound], for which the “Fibrin Selectivity” value in data set [1] came out at 6. For the same compound, the “Fibrin Selectivity (LOG10)” value in data set [1] is 0.75. Also, the IC50 is 3 µM in data set [1] (setting [8]); 3 µM in data set [1] (setting [9]); 3 µM in data set [1] (setting [10]); 3 µM in data set [1] (setting [11]); 18 µM in data set [2] (setting [12]); 18 µM in data set [2] (setting [13]). Further, the IC50 in data set [2] (setting [14]) is 18 µM; in data set [2] (setting [15]), 18 µM; in data set [4] (Table 3), over 20 µM; in data set [4] (cFib assay), over 20 µM; in data set [5] it was over 20 µM; in data set [6], over 20 µM. The inhibition at 10 µM in data set [1] is 76%; in data set [2] (48 h) it was 66%; in data set [3] (setting [17]) it was over 50%; in data set [3] (setting [18]), over 50%. The “Quadrant (FIG. 5b)” value in data set [3] (setting [16]) is given as “Q2”; in data set [3] (Table 1, screen at 10 μM) it was “Q2”; in data set [3] (Table 3, screen at 10 μM) it was “Q2”; in data set [3] (setting [19]) it was “Q2”. Besides, the “LPS % cell toxicity” value in data set [6] amounted to 2%. Moreover, the “Fibrin % cell toxicity” value in data set [7] is recorded as 1%.
